In patent publication US20260108545A1, “Methods of treating fibromyalgia with compositions comprising psilocybin” (Tryp Therapeutics Inc., priority 2022, published 2026):

Legend:
[1] = cited from earlier work
[2] = rats, cited from earlier work
[3] = across species tested; cited from earlier work
[4] = system: rat model of formalin (FML)-induced chronic pain; assay: Von Frey assay (VFA), mechanical allodynia, formalin-induced rat pain model; format: in vivo, Sprague Dawley rats
Text: This example describes the effects of intravenous administration of psychedelics on pain perception and diseases associated with pain, such as nociplastic pain, in an animal model of pain. A rat model of formalin (FML)-induced chronic pain was used to investigate the effect of psilocybin administration on mechanical allodynia and thermal hyperalgesia.
Chronic pain in rats was induced by injection of formalin into the hind paw. The rats subsequently were intravenously administered psilocybin, and assessed for changes in pain perception over an extended period of time. […] The pain perception was measured in the contralateral and ipsilateral paws to assess the potential benefit of psychedelics (e.g., psilocybin) in nociplastic pain disorders. […]
Adult male Sprague Dawley rats (300-350 g) were implanted with a catheter in the jugular vein for delivery of 10 mg/kg psilocybin or 0.9% saline. Mechanical allodynia was assessed using von Frey assay (VFA) and was expressed as the threshold in grams (g). Thermal hyperalgesia was measured as paw withdrawal latency in seconds (s) using the hot plate assay (HPA) (52.5° C.). After post-surgical recovery (7-10 days), baseline responses to mechanical and thermal stimuli were measured. […] Two hours after the formalin injection, paw withdrawal thresholds in response to mechanical and thermal stimuli were measured. […]
Two types of pain perception were measured. […]

[5] = cited from earlier work; remark: listed apart in the source
[6] = single oral administration of psilocybin at 0.225 mg/kg (Hasler et al.)

CN(C)CCc1c[nH]c2cccc(O)c12 [psilocin]
time until psilocin is detectable in plasma ([1]; after administration of the parent compound (oral psilocybin)): ≤ 20 min | absolute bioavailability of psilocin after oral administration of psilocybin ([1]; estimate (Hasler et al.)): 52.7+/−20% | half-life of psilocin in blood ([1]; in vivo): 2 to 3 h | average peak concentration of psilocin in plasma [1, 6]: 8.2+/−2.8 ng psilocin/ml plasma | time of peak plasma levels of psilocin [1, 6]: 105 ± 37 min | share of total psilocin absorbed from the digestive tract ([2]; oral psilocybin (Kalberer et al.)): approximately 50% | time to maximum plasma levels ([2]; post-administration (Chen et al.)): approximately 90 minutes | brain regions with the highest levels of psilocin [3]: neocortex, hippocampus, and thalamus

CN(C)CCc1c[nH]c2cccc(OP(=O)(O)O)c12 [psilocybin, 3-[2-(dimethylamino)ethyl]-1H-indol-4-yl]dihydrogen phosphate]
bioavailability of oral psilocybin ([1]; oral): ~50% | duration of statistically significant increase in withdrawal threshold ([4]; contralateral paw, after a single psilocybin administration): 3 weeks | duration of decreased tactile pain ([4]; rat model of pain): up to 28 days | tolerability ([5]; at the doses examined in clinical studies / healthy individuals): well tolerated | rates of prolonged psychiatric symptoms of any kind following psilocybin exposure ([5]; healthy study subjects, estimated): 0.08-0.09% | drug-related serious adverse events (SAEs) ([5]; oral psilocybin): No drug-related serious adverse events (SAEs) have been reported
